The results in this text go back to publication PMC9969250 (2023).

Test [1] has as its system MN4 (DNA, aptamer) GGCGACAAGGAAAATCCTTCAACGAAGTGGGTCGCC
The test is described as follows: quinine fluorescence quenching. The conditions noted are these: PBS, 5 mM MgCl2; pH 7.4, 20 °C; 0.1 μM quinine; three-parameter fit; per site.

For test [2], the system named is A (boxcar A) (DNA, aptamer) CGTCTAATCTAATCAGGCGACAAGGAAAATCCTTCAACGAAGTGGGTCGCCCTAACTCTCTATCCG
The experiment in a line: quinine fluorescence quenching. Conditions: PBS, 5 mM MgCl2; pH 7.4, 20 °C; 0.1 μM quinine; three-parameter fit; per site.

One may read the KD as the concentration at which binding is half-saturated. A high value points to a looser complex. In the case of `C=C[C@H]1CN2CC[C@H]1C[C@H]2[C@H](O)c1ccnc2ccc(OC)cc12`, the KD is 0.28 ± 0.06 µM in test [1] and 0.38 ± 0.13 µM in test [2].
